# Publication PMC9481151, “Discovery of new symmetrical and asymmetrical nitrile-containing 1,4-dihydropyridine derivatives as dual kinases and P-glycoprotein inhibitors: synthesis, in vitro assays, and in silico studies” (Journal of Enzyme Inhibition and Medicinal Chemistry, 2022)
# Key:
# CCRF-CEM = experiment: NCI single dose (10 µM) SRB screen; assay type: cell-based, human; conditions: leukaemia, 48 h
# K-562 = experiment: NCI single dose (10 µM) SRB screen; assay type: cell-based, human; conditions: leukaemia, 48 h
# MOLT-4 = experiment: NCI single dose (10 µM) SRB screen; assay type: cell-based, human; conditions: leukaemia, 48 h
# RPMI-8226 = experiment: NCI single dose (10 µM) SRB screen; assay type: cell-based, human; conditions: leukaemia, 48 h
# SR = experiment: NCI single dose (10 µM) SRB screen; assay type: cell-based, human; conditions: leukaemia, 48 h
# EKVX = experiment: NCI single dose (10 µM) SRB screen; assay type: cell-based, human; conditions: non-small cell lung cancer, 48 h
# HOP-62 = experiment: NCI single dose (10 µM) SRB screen; assay type: cell-based, human; conditions: non-small cell lung cancer, 48 h
# HOP-92 = experiment: NCI single dose (10 µM) SRB screen; assay type: cell-based, human; conditions: non-small cell lung cancer, 48 h
# NCI-H226 = experiment: NCI single dose (10 µM) SRB screen; assay type: cell-based, human; conditions: non-small cell lung cancer, 48 h
# NCI-H23 = experiment: NCI single dose (10 µM) SRB screen; assay type: cell-based, human; conditions: non-small cell lung cancer, 48 h
# NCI-H460 = experiment: NCI single dose (10 µM) SRB screen; assay type: cell-based, human; conditions: non-small cell lung cancer, 48 h
# NCI-H522 = experiment: NCI single dose (10 µM) SRB screen; assay type: cell-based, human; conditions: non-small cell lung cancer, 48 h
# COLO 205 = experiment: NCI single dose (10 µM) SRB screen; assay type: cell-based, human; conditions: colon cancer, 48 h
# HCC-2998 = experiment: NCI single dose (10 µM) SRB screen; assay type: cell-based, human; conditions: colon cancer, 48 h
# HCT-116 = experiment: NCI single dose (10 µM) SRB screen; assay type: cell-based, human; conditions: colon cancer, 48 h
# HCT-15 = experiment: NCI single dose (10 µM) SRB screen; assay type: cell-based, human; conditions: colon cancer, 48 h
# HT29 = experiment: NCI single dose (10 µM) SRB screen; assay type: cell-based, human; conditions: colon cancer, 48 h
# KM12 = experiment: NCI single dose (10 µM) SRB screen; assay type: cell-based, human; conditions: colon cancer, 48 h
# SW-620 = experiment: NCI single dose (10 µM) SRB screen; assay type: cell-based, human; conditions: colon cancer, 48 h
# SF-268 = experiment: NCI single dose (10 µM) SRB screen; assay type: cell-based, human; conditions: CNS cancer, 48 h
# SF-295 = experiment: NCI single dose (10 µM) SRB screen; assay type: cell-based, human; conditions: CNS cancer, 48 h
# SNB-19 = experiment: NCI single dose (10 µM) SRB screen; assay type: cell-based, human; conditions: CNS cancer, 48 h
# SNB-75 = experiment: NCI single dose (10 µM) SRB screen; assay type: cell-based, human; conditions: CNS cancer, 48 h
# U251 = experiment: NCI single dose (10 µM) SRB screen; assay type: cell-based, human; conditions: CNS cancer, 48 h
# LOX IMVI = experiment: NCI single dose (10 µM) SRB screen; assay type: cell-based, human; conditions: melanoma, 48 h
# MALME-3M = experiment: NCI single dose (10 µM) SRB screen; assay type: cell-based, human; conditions: melanoma, 48 h
# M14 = experiment: NCI single dose (10 µM) SRB screen; assay type: cell-based, human; conditions: melanoma, 48 h
# MDA-MB-435 = experiment: NCI single dose (10 µM) SRB screen; assay type: cell-based, human; conditions: melanoma, 48 h
# SK-MEL-2 = experiment: NCI single dose (10 µM) SRB screen; assay type: cell-based, human; conditions: melanoma, 48 h
# SK-MEL-28 = experiment: NCI single dose (10 µM) SRB screen; assay type: cell-based, human; conditions: melanoma, 48 h
# SK-MEL-5 = experiment: NCI single dose (10 µM) SRB screen; assay type: cell-based, human; conditions: melanoma, 48 h
# IGROV1 = experiment: NCI single dose (10 µM) SRB screen; assay type: cell-based, human; conditions: ovarian cancer, 48 h
# OVCAR-3 = experiment: NCI single dose (10 µM) SRB screen; assay type: cell-based, human; conditions: ovarian cancer, 48 h
# OVCAR-5 = experiment: NCI single dose (10 µM) SRB screen; assay type: cell-based, human; conditions: ovarian cancer, 48 h
# NCI/ADR-RES = experiment: NCI single dose (10 µM) SRB screen; assay type: cell-based, human; conditions: ovarian cancer, 48 h
# SK-OV-3 = experiment: NCI single dose (10 µM) SRB screen; assay type: cell-based, human; conditions: ovarian cancer, 48 h
# 786-0 = experiment: NCI single dose (10 µM) SRB screen; assay type: cell-based, human; conditions: renal cancer, 48 h
# SN12C = experiment: NCI single dose (10 µM) SRB screen; assay type: cell-based, human; conditions: renal cancer, 48 h
# TK-10 = experiment: NCI single dose (10 µM) SRB screen; assay type: cell-based, human; conditions: renal cancer, 48 h
# PC-3 = experiment: NCI single dose (10 µM) SRB screen; assay type: cell-based, human; conditions: prostate cancer, 48 h
# DU-145 = experiment: NCI single dose (10 µM) SRB screen; assay type: cell-based, human; conditions: prostate cancer, 48 h
# MDA-MB-231 = experiment: NCI single dose (10 µM) SRB screen; assay type: cell-based, human; conditions: breast cancer, 48 h
# HS578T = experiment: NCI single dose (10 µM) SRB screen; assay type: cell-based, human; conditions: breast cancer, 48 h
# T-47D = experiment: NCI single dose (10 µM) SRB screen; assay type: cell-based, human; conditions: breast cancer, 48 h
# MDA-MB-468 = experiment: NCI single dose (10 µM) SRB screen; assay type: cell-based, human; conditions: breast cancer, 48 h
# NCI 60 cancer cell lines = experiment: NCI single dose (10 µM) SRB screen, mean over panel; assay type: cell-based, human; conditions: mean over 60 cell lines, 48 h
# Staphylococcus aureus = experiment: Agar well diffusion method
# Bacillus subtilis = experiment: Agar well diffusion method; conditions: relative to ciprofloxacin
# Escherichia coli = experiment: Agar well diffusion method; conditions: relative to ciprofloxacin
# Pseudomonas aeruginosa = experiment: Agar well diffusion method
# Candida albicans = experiment: Agar well diffusion method; conditions: relative to clotrimazole
compound,measurement,setting,value
"COC(=O)C1=C(C)NC(C)=C(C(=O)OCc2ccccc2)C1c1cccc(C#N)c1 (racemic) [Compound 2e, (±)-3-Benzyl 5-methyl 4-(3-cyanophenyl)-2,6-dimethyl-1,4-dihydropyridine-3,5-dicarboxylate]",GI% CCRF-CEM,CCRF-CEM,37%
same,GI% K-562,K-562,56%
same,GI% MOLT-4,MOLT-4,56%
same,GI% RPMI-8226,RPMI-8226,52%
same,GI% SR,SR,33%
same,GI% EKVX,EKVX,26%
same,GI% HOP-62,HOP-62,16%
same,GI% HOP-92,HOP-92,12%
same,GI% NCI-H226,NCI-H226,31%
same,GI% NCI-H23,NCI-H23,– (Only GI% ≥ 10 are shown)
same,GI% NCI-H460,NCI-H460,64%
same,GI% NCI-H522,NCI-H522,24%
same,GI% COLO 205,COLO 205,43%
same,GI% HCC-2998,HCC-2998,– (Only GI% ≥ 10 are shown)
same,GI% HCT-116,HCT-116,71%
same,GI% HCT-15,HCT-15,66%
same,GI% HT29,HT29,31%
same,GI% KM12,KM12,39%
same,GI% SW-620,SW-620,45%
same,GI% SF-268,SF-268,23%
same,GI% SF-295,SF-295,44%
same,GI% SNB-19,SNB-19,32%
same,GI% SNB-75,SNB-75,34%
same,GI% U251,U251,46%
same,GI% LOX IMVI,LOX IMVI,61%
same,GI% MALME-3M,MALME-3M,24%
same,GI% M14,M14,15%
same,GI% MDA-MB-435,MDA-MB-435,35%
same,GI% SK-MEL-2,SK-MEL-2,– (Only GI% ≥ 10 are shown)
same,GI% SK-MEL-28,SK-MEL-28,27%
same,GI% SK-MEL-5,SK-MEL-5,37%
same,GI% IGROV1,IGROV1,36%
same,GI% OVCAR-3,OVCAR-3,– (Only GI% ≥ 10 are shown)
same,GI% OVCAR-5,OVCAR-5,21%
same,GI% NCI/ADR-RES,NCI/ADR-RES,25%
same,GI% SK-OV-3,SK-OV-3,– (Only GI% ≥ 10 are shown)
same,GI% 786-0,786-0,22%
same,GI% SN12C,SN12C,– (Only GI% ≥ 10 are shown)
same,GI% TK-10,TK-10,– (Only GI% ≥ 10 are shown)
same,GI% PC-3,PC-3,51%
same,GI% DU-145,DU-145,15%
same,GI% MDA-MB-231,MDA-MB-231,30%
same,GI% HS578T,HS578T,28%
same,GI% T-47D,T-47D,11%
same,GI% MDA-MB-468,MDA-MB-468,33%
same,Mean GI%,NCI 60 cancer cell lines,28%
same,zone of inhibition at 1000 µg/mL,"Staphylococcus aureus; Staphylococcus aureus, 24 h, read-out: Diameter of inhibition zone, S. aureus",8 mm
same,"% activity index, S. aureus",Staphylococcus aureus; relative to ciprofloxacin,33.3%
same,"% activity index, B. subtilis",Bacillus subtilis,– (Values below 25 are of limited value and not shown as they refer either to inactive or non-diffusing compounds)
same,"% activity index, E. coli",Escherichia coli,– (Values below 25 are of limited value and not shown as they refer either to inactive or non-diffusing compounds)
same,zone of inhibition at 1000 µg/mL,"Pseudomonas aeruginosa; Pseudomonas aeruginosa, 24 h, read-out: Diameter of inhibition zone, P. aeruginosa",7 mm
same,"% activity index, P. aeruginosa",Pseudomonas aeruginosa; relative to ciprofloxacin,30.4%
same,"% activity index, C. albicans",Candida albicans,– (Values below 25 are of limited value and not shown as they refer either to inactive or non-diffusing compounds)
